Reference: paper PMC9144433, “The Effect of Standardised Leaf Extracts of Gaultheria procumbens on Multiple Oxidants, Inflammation-Related Enzymes, and Pro-Oxidant and Pro-Inflammatory Functions of Human Neutrophils” (Molecules, 2022)

Assays:
lipoxygenase (LOX) = molecular target: T1, lipoxygenase (LOX); test: LOX inhibition, 96-well plate reader; assay type: biochemical; settings: positive control; n = […]
T1 construct: gene LOX1.1; reagents from Sigma-Aldrich; soybean enzyme is usual

hyaluronidase (HYAL) = molecular target: T2, hyaluronidase (HYAL); test: HYAL inhibition, 96-well plate reader; assay type: biochemical; settings: positive control; n = […]
T2 construct: gene SPAM1; reagents from Sigma-Aldrich; bovine testes preparation is usual
Description: HYAL inhibition, 96-well plate reader on hyaluronidase (HYAL)

Row | Structure (SMILES) | LOX / IC50 (μg/mL) ^a (lipoxygenase (LOX)) [µg/mL] | HYAL / IC50 (μg/mL) ^a (hyaluronidase (HYAL)) [µg/mL]
1 | C[C@@H]1C[C@H]2[C@@H]3CCC4=CC(=O)C=C[C@]4(C)[C@@]3(F)[C@@H](O)C[C@]2(C)[C@@]1(O)C(=O)CO [DEX] | 120.16 ± 4.86 | 14.07 ± 1.25
2 | COc1ccc2c(c1)c(CC(=O)O)c(C)n2C(=O)c1ccc(Cl)cc1 [IND] | 91.89 ± 3.95 | 12.68 ± 1.79
3 | O=c1c(O)c(-c2ccc(O)c(O)c2)oc2cc(O)cc(O)c12 [compound 41, QU] | – | 31.78 ± 1.52
